The results in this text go back to ChEMBL document CHEMBL5390314, “Repurposing Azoles to Resolve Serotogenic Toxicity Associated with Linezolid to Combat Multidrug-Resistant Tuberculosis” (ACS Med Chem Lett, 2023).

Test [1] has as its system Mycobacterium tuberculosis. Description: Anti-mycobacterial activity against Mycobacterium tuberculosis H37Rv assessed as bacterial growth inhibition incubated for 7 days by microplate Alamar blue assay. Type of test: functional. The conditions noted are these: 168 h, time 7 day. On the technique in general: Alamar Blue is a resazurin reagent that responds to reducing activity.

Test [2] addresses T1, Amine oxidase [flavin-containing] B (Homo sapiens, UniProt P27338).
T1 sequence (P27338 whole entry): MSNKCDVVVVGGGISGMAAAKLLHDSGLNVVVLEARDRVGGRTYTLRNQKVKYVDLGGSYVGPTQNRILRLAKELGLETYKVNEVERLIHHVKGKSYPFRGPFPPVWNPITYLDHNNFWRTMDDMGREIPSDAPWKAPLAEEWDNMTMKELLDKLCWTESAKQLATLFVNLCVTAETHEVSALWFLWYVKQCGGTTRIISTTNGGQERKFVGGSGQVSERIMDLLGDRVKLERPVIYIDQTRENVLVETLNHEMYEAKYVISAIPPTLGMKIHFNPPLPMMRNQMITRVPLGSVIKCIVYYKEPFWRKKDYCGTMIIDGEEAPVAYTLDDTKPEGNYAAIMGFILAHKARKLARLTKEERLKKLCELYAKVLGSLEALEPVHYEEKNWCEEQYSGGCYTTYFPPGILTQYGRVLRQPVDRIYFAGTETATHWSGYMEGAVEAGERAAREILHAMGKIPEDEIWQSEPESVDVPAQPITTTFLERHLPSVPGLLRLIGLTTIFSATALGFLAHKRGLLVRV
Description: Inhibition of recombinant MAO-B (unknown origin) using benzylamine as a substrate by MAO assay. Format: toxicity.

Test [3] deals with T2, Amine oxidase [flavin-containing] A (Homo sapiens, UniProt P21397).
T2 sequence (P21397 whole entry): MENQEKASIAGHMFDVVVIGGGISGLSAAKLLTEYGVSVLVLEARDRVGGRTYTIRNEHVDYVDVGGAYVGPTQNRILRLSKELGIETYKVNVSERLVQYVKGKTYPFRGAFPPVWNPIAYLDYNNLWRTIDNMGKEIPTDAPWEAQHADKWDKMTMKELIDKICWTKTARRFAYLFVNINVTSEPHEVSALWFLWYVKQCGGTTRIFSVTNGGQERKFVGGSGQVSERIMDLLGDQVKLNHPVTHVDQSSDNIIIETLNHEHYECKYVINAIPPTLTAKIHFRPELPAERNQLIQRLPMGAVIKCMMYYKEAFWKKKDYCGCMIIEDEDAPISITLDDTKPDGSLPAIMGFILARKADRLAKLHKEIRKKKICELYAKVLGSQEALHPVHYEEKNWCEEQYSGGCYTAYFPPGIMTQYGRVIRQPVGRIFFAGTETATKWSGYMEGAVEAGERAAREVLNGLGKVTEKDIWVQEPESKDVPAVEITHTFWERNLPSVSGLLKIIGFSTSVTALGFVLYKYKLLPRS
The test is described as follows: Inhibition of recombinant MAO-A (unknown origin) using kynuramine as a substrate by MAO assay. Type of test: toxicity.

Test [4] deals with Mycobacterium tuberculosis. The test is described as follows: Anti-mycobacterial activity against Mycobacterium tuberculosis clinical isolate assessed as bacterial growth inhibition incubated for 7 days by microplate Alamar blue assay. Format: functional. The conditions noted are these: 168 h, time 7 day.

In brackets after ≈: the same amount, converted by molar mass.

As usually defined, the MIC is the least concentration at which growth counts as inhibited. As usually defined, the IC50 is the concentration that inhibits the measured activity by half. The MIC50 is an inhibitory concentration at the 50% level, which refers to growth in some studies and to a panel of isolates in others. One may read the MIC90 as the lowest concentration that inhibits either 90% of growth or 90% of the strains tested, depending on the study.

Consider `CCC(C)n1ncn(-c2ccc(N3CCN(c4ccc(OCC5COC(Cn6cncn6)(c6ccc(Cl)cc6Cl)O5)cc4)CC3)cc2)c1=O` (stereo unspecified) [ITRACONAZOLE], for which the MIC in test [1] was more than 35 µM.
With `Clc1ccccc1C(c1ccccc1)(c1ccccc1)n1ccnc1` [CLOTRIMAZOLE], the IC50 in test [2] worked out at 31.2 µM. Besides, the MIC in test [1] was found to be 2.26 µM (≈ 0.779 µg/mL). The IC50 in test [3] is 25.4 µM. In test [4], the MIC50 worked out at 0.87 µM (≈ 0.3 µg/mL) and the MIC90 was 1.56 µM (≈ 0.538 µg/mL).
For the compound `NNC(=O)c1ccncc1` [ISONIAZID], in test [4], the MIC50 is less than 0.2 µM and the MIC90 is less than 0.2 µM.
On to `Clc1ccc(COC(Cn2ccnc2)c2ccc(Cl)cc2Cl)c(Cl)c1` (stereo unspecified) [MICONAZOLE], for which the results for the IC50 in test [2] and in test [3] were 13.2 µM and 37.8 µM, respectively. The MIC in test [1] stood at 3.74 µM (≈ 1.56 µg/mL). For the same compound, the MIC50 in test [4] was 1 µM (≈ 0.416 µg/mL). Further, the MIC90 in test [4] came out at 1.56 µM (≈ 0.649 µg/mL).
As for `CC[C@@H]([C@H](C)O)n1ncn(-c2ccc(N3CCN(c4ccc(OC[C@@H]5CO[C@@](Cn6cncn6)(c6ccc(F)cc6F)C5)cc4)CC3)cc2)c1=O` [POSACONAZOLE], in test [1], the MIC was more than 35 µM.
Consider `CO[C@H]1/C=C/O[C@@]2(C)Oc3c(C)c(O)c4c(O)c(c(/C=N/N5CCN(C)CC5)c(O)c4c3C2=O)NC(=O)/C(C)=C\C=C\[C@H](C)[C@H](O)[C@@H](C)[C@@H](O)[C@@H](C)[C@H](OC(C)=O)[C@@H]1C` [RIFAMPIN], for which, in test [4], the MIC50 was less than 0.04 µM and the MIC90 is less than 0.04 µM.
As for `CC(=O)NC[C@H]1CN(c2ccc(N3CCOCC3)c(F)c2)C(=O)O1` [LINEZOLID], the IC50 was 0.619 µM in test [2] and 6.52 µM in test [3]. Also, the MIC in test [1] was found to be 2.31 µM (≈ 0.779 µg/mL). The MIC50 in test [4] was found to be 0.34 µM (≈ 0.115 µg/mL). In test [4], the MIC90 came out at 0.78 µM (≈ 0.263 µg/mL).
